# Test results taken from patent US12582697B2, “Antisecretory factor for use in treatment and/or prevention of acute respiratory failure” (LANTMÄNNEN MEDICAL AB, priority 2018, dated 2026).
# Where a SMILES comes first, the peptide text is derived from it.
# Test system: adult pigs with experimentally induced ARDS
# Assay: ARDS model: adverse side effects on cardiovascular parameters
# Type: in vivo, pig
# Conditions: iv infusion 2 mg/kg, anaesthetized pigs
# Procedure: After ethical approval, 3 months old pigs (body weight 30-35 kg), in all 12, were purchased from a local farm and 2 pigs on 6 occasions brought to the laboratory in the morning on the day for the experiment. […] Upon arrival, the pigs were sedated and thereafter kept fully anaesthetized during the entire experiment until termination late the same day. Tracheostomy was performed and mechanical ventilation performed with a ventilator. This setup is visualized in FIG. 1. Tubes positioned in arteries, veins and via a vein also in the right heart. Equipment was implanted to enable the use of PiCCO instrument (Pulse index, Continuous Cardiac Output=PiCCO) in order to enable exact determination of the total blood volume in the lungs, extra-vascular lung water (EVLW) and cardiac function parameters. Blood pressure transducers were inserted in the pulmonary artery and in a central artery. Arterial blood gasses and additional blood parameters were checked at regular intervals. Oximetry was used to determine hemoglobin oxygen saturation in arterial blood. The core body temperature was kept automatically at desired normal level. EKG was recorded. […]
# Treatment with the peptide AF-16 or the vehicle started after the induction of the lung injury (i.e., after the injurious ventilation). […] The PiCCO values were determined once every hour for up to 4 hours after the infusion of the test substance. […]
structure (smiles),measurement,value
"CC(C)C[C@H](NC(=O)CNC(=O)[C@@H](NC(=O)[C@H](CC(N)=O)NC(=O)[C@H](CC(N)=O)NC(=O)[C@H](CCC(=O)O)NC(=O)[C@@H]1CCCN1C(=O)[C@H](CC(N)=O)NC(=O)[C@H](CO)NC(=O)[C@H](CCCNC(=N)N)NC(=O)[C@@H](NC(=O)[C@H](CCCCN)NC(=O)[C@H](CO)NC(=O)[C@H](Cc1c[nH]cn1)NC(=O)[C@H](CS)NC(=O)[C@@H](N)C(C)C)[C@@H](C)O)C(C)C)C(=O)O [AF-16, VCHSKTRSNPENNVGL] (H-VCHSKTRSNPENNVGL-OH; N-terminus and C-terminus assumed)","adverse side effects on cardiovascular parameters, including blood pressure and heart rates",no adverse side effects could be demonstrated
